# According to article PMC5955799 (ACS chemical neuroscience, 2018):
# Numbered stars: 1 amine (or outer) side, 2 acyl side, 3 side chain; on linkers, the order of the positions; unused ones are H or OH. Square brackets hold non-standard residues; d marks the D form. Peptide text beside a SMILES is read from it. X1 = C#Cc1cccc(-c2cn(C[C@H](N[*:1])C(=O)[*:2])nn2)c1; X2 = C#Cc1cccc(-c2cnnn2C[C@H](N[*:1])C(=O)[*:2])c1
# Experiments:
# [1] = biological target: mMC1R (Mus musculus, UniProt Q01727); test: AlphaScreen cAMP agonist assay in HEK293 cells stably expressing mMC1R; details: for Fold diff (mMC1R): decrease in agonist potency compared to peptide 1
# [2] = biological target: mMC5R (Mus musculus, UniProt P41149); test: AlphaScreen cAMP agonist assay in HEK293 cells stably expressing mMC5R; details: for Fold diff (mMC5R): decrease in agonist potency compared to peptide 1
# [3] = biological target: mMC3R (Mus musculus, UniProt P33033); test: AlphaScreen cAMP agonist assay in HEK293 cells stably expressing mMC3R; details: for Fold diff (mMC3R): decrease in agonist potency compared to peptide 1
# [4] = biological target: mMC4R (Mus musculus, UniProt P56450); test: AlphaScreen cAMP agonist assay in HEK293 cells stably expressing mMC4R; details: for Fold diff (mMC4R): decrease in agonist potency compared to peptide 1
# mMC4R, sequence (P56450 whole entry): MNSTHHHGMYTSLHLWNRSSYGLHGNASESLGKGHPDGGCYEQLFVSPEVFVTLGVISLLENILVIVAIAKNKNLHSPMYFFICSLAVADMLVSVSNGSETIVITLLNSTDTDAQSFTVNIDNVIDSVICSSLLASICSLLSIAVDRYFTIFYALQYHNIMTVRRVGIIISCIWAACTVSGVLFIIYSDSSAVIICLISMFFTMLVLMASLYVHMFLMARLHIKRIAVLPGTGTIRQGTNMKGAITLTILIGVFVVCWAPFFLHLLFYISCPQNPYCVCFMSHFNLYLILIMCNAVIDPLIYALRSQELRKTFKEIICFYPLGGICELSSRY
# mMC5R, sequence (P41149 whole entry): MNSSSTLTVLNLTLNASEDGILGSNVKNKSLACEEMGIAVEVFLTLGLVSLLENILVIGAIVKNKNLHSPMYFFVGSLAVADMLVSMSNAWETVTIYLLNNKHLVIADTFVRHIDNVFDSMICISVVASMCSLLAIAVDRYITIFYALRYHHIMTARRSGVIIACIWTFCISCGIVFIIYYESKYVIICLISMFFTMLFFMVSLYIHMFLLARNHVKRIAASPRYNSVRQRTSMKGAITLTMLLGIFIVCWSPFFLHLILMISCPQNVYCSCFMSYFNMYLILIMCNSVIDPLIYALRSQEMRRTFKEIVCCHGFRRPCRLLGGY
# mMC3R, sequence (P33033 whole entry): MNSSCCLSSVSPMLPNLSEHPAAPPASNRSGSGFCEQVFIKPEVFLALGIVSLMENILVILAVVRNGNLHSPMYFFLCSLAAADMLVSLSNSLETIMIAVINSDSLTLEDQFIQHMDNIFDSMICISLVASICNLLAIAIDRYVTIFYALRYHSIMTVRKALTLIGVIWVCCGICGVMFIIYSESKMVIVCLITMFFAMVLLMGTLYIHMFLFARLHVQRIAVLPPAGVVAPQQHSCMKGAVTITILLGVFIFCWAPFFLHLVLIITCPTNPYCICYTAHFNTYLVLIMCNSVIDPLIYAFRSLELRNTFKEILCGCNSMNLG
# mMC1R, sequence (Q01727 whole entry): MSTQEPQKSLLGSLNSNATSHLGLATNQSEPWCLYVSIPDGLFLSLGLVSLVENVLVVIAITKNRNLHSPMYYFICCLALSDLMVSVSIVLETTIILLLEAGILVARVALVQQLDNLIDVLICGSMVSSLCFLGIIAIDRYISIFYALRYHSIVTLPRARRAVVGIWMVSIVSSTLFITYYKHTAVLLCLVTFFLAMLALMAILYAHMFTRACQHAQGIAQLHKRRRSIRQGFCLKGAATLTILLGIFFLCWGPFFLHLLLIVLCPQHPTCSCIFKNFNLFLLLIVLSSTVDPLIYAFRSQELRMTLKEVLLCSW
structure (smiles),measurement,setting,value
"C[C@@H]1NC(=O)[C@H](CC(N)=O)NC(=O)[C@H](Cc2c[nH]c3ccccc23)NC(=O)[C@H](CCCN=C(N)N)NC(=O)[C@@H](Cc2ccccc2)NC(=O)[C@H](Cc2cnc[nH]2)NC(=O)[C@@H](NC(=O)[C@@H](N)Cc2ccc(O)cc2)CSSC[C@@H](C(=O)N[C@@H](Cc2ccc(O)cc2)C(N)=O)NC(=O)[C@H](Cc2ccccc2)NC1=O [Peptide 1, Tyr-c[Cys-His-DPhe-Arg-Trp-Asn-Ala-Phe-Cys]-Tyr-NH2, reference compound]",EC50,[1],0.14 ± 0.01 nM
same,EC50,[2],2.4 ± 0.31 nM
same,EC50,[3],2.2 ± 0.58 nM
same,EC50,[4],0.43 ± 0.13 nM
C#Cc1cccc(-c2cn(C[C@H](NC(=O)[C@H](Cc3ccccc3)NC(=O)[C@H](C)NC(=O)[C@H](CC(N)=O)NC(=O)[C@H](Cc3c[nH]c4ccccc34)NC(=O)[C@H](CCCNC(=N)N)NC(=O)[C@@H](Cc3ccccc3)NC(=O)[C@H](Cc3c[nH]cn3)NC(=O)[C@H](Cn3cc(-c4cccc(C#C)c4)nn3)NC(=O)[C@@H](N)Cc3ccc(O)cc3)C(=O)N[C@@H](Cc3ccc(O)cc3)C(N)=O)nn2)c1 [Peptide 9] (H-Y[X1]H[dF]RWNAF[X1]Y-NH2),EC50,[1],802 ± 227 nM
same,Fold diff (mMC1R),[1],5728 fold
same,EC50,[2],294 ± 4.8 nM
same,Fold diff (mMC5R),[2],122 fold
same,EC50,[3],1460 ± 245 nM
same,Fold diff (mMC3R),[3],665 fold
same,EC50,[4],1520 ± 328 nM
same,Fold diff (mMC4R),[4],3540 fold
C#Cc1cccc(-c2cnnn2C[C@H](NC(=O)[C@H](Cc2ccccc2)NC(=O)[C@H](C)NC(=O)[C@H](CC(N)=O)NC(=O)[C@H](Cc2c[nH]c3ccccc23)NC(=O)[C@H](CCCNC(=N)N)NC(=O)[C@@H](Cc2ccccc2)NC(=O)[C@H](Cc2c[nH]cn2)NC(=O)[C@H](Cn2nncc2-c2cccc(C#C)c2)NC(=O)[C@@H](N)Cc2ccc(O)cc2)C(=O)N[C@@H](Cc2ccc(O)cc2)C(N)=O)c1 [Peptide 12] (H-Y[X2]H[dF]RWNAF[X2]Y-NH2),EC50,[1],116 ± 40 nM
same,Fold diff (mMC1R),[1],829 fold
same,EC50,[2],107 ± 17 nM
same,Fold diff (mMC5R),[2],45 fold
same,EC50,[3],404 ± 52 nM
same,Fold diff (mMC3R),[3],184 fold
same,EC50,[4],142 ± 30 nM
same,Fold diff (mMC4R),[4],330 fold
